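Method: 48-hour compound exposure of cells in 96-well plates, five concentrations, linear interpolation of endpoints. GI50 = concentration required for 50% inhibition of growth. TGI is the concentration that stops growth completely.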
Columns and labels:
Test in all cases: NCI tumour cell line growth inhibition, 48 h
ACHN renal = system: ACHN renal
BT-549 breast = system: BT-549 breast
HCC-2998 colon = system: HCC-2998 colon
MOLT-4 leukemia = system: MOLT-4 leukemia
EKVX NSCLC = system: EKVX NSCLC
KM12 colon = system: KM12 colon
A498 renal = system: A498 renal
UACC-62 melanoma = system: UACC-62 melanoma
CAKI-1 renal = system: CAKI-1 renal
TK-10 renal = system: TK-10 renal
RPMI-8226 leukemia = system: RPMI-8226 leukemia
HS 578T breast = system: HS 578T breast
HL-60(TB) leukemia = system: HL-60(TB) leukemia
MDA-MB-435 = system: MDA-MB-435
U251 CNS = system: U251 CNS
NCI-H23 lung = system: NCI-H23 lung
UACC-257 melanoma = system: UACC-257 melanoma
SK-MEL-5 melanoma = system: SK-MEL-5 melanoma
HT29 colon = system: HT29 colon
SK-OV-3 ovarian = system: SK-OV-3 ovarian
SW-620 colon = system: SW-620 colon
OVCAR-3 ovarian = system: OVCAR-3 ovarian
SR leukemia = system: SR leukemia
MDA-MB-231 breast = system: MDA-MB-231 breast
HCT-15 colon = system: HCT-15 colon
NCI-H226 lung = system: NCI-H226 lung
NCI/ADR-RES ovarian = system: NCI/ADR-RES ovarian
IGROV1 ovarian = system: IGROV1 ovarian
NCI-H522 lung = system: NCI-H522 lung
SF-295 CNS = system: SF-295 CNS
NCI-H460 lung = system: NCI-H460 lung
MALME-3M melanoma = system: MALME-3M melanoma
COLO 205 colon = system: COLO 205 colon
OVCAR-4 ovarian = system: OVCAR-4 ovarian
SNB-19 CNS = system: SNB-19 CNS
SK-MEL-2 melanoma = system: SK-MEL-2 melanoma
DU-145 prostate = system: DU-145 prostate
OVCAR-5 ovarian = system: OVCAR-5 ovarian
PC-3 prostate = system: PC-3 prostate
HOP-92 NSCLC = system: HOP-92 NSCLC
SN12C renal = system: SN12C renal
786-0 renal = system: 786-0 renal
LOX IMVI melanoma = system: LOX IMVI melanoma
M14 melanoma = system: M14 melanoma
MCF7 breast = system: MCF7 breast
CCRF-CEM leukemia = system: CCRF-CEM leukemia
SK-MEL-28 melanoma = system: SK-MEL-28 melanoma
SF-539 CNS = system: SF-539 CNS
K-562 leukemia = system: K-562 leukemia
HOP-62 NSCLC = system: HOP-62 NSCLC
UO-31 renal = system: UO-31 renal
RXF 393 renal = system: RXF 393 renal
HCT-116 colon = system: HCT-116 colon
OVCAR-8 ovarian = system: OVCAR-8 ovarian
SF-268 CNS = system: SF-268 CNS
A549 NSCLC = system: A549 NSCLC
SNB-75 CNS = system: SNB-75 CNS
T-47D breast = system: T-47D breast

SMILES: CS(=O)(=O)c1ccc(Cl)c([N+](=O)[O-])c1
- GI50 (ACHN renal): 16 µM
- TGI (ACHN renal): 29.7 µM
- GI50 (BT-549 breast): 18.7 µM
- TGI (BT-549 breast): 32.8 µM
- GI50 (HCC-2998 colon): 11 µM
- TGI (HCC-2998 colon): 24 µM
- GI50 (MOLT-4 leukemia): 28.5 µM
- TGI (MOLT-4 leukemia): 69.5 µM
- GI50 (EKVX NSCLC): 18.5 µM
- TGI (EKVX NSCLC): 38.1 µM
- GI50 (KM12 colon): 14.8 µM
- TGI (KM12 colon): 29.6 µM
- GI50 (A498 renal): 38.6 µM
- TGI (A498 renal): > 100 µM
- GI50 (UACC-62 melanoma): 15.1 µM
- TGI (UACC-62 melanoma): 28.6 µM
- GI50 (CAKI-1 renal): 2.05 µM
- TGI (CAKI-1 renal): 4.3 µM
- GI50 (TK-10 renal): 18.9 µM
- TGI (TK-10 renal): 34.4 µM
- GI50 (RPMI-8226 leukemia): 25.5 µM
- TGI (RPMI-8226 leukemia): 70 µM
- GI50 (HS 578T breast): 26 µM
- TGI (HS 578T breast): 89.1 µM
- GI50 (HL-60(TB) leukemia): 19.7 µM
- TGI (HL-60(TB) leukemia): 47.6 µM
- GI50 (MDA-MB-435): 18.9 µM
- TGI (MDA-MB-435): 38.4 µM
- GI50 (U251 CNS): 15.2 µM
- TGI (U251 CNS): 29 µM
- GI50 (NCI-H23 lung): 16.5 µM
- TGI (NCI-H23 lung): 33.5 µM
- GI50 (UACC-257 melanoma): 15.8 µM
- TGI (UACC-257 melanoma): 31.6 µM
- GI50 (SK-MEL-5 melanoma): 13 µM
- TGI (SK-MEL-5 melanoma): 25.7 µM
- GI50 (HT29 colon): 4.63 µM
- TGI (HT29 colon): 17 µM
- GI50 (SK-OV-3 ovarian): 18.4 µM
- TGI (SK-OV-3 ovarian): 32.3 µM
- GI50 (SW-620 colon): 12.8 µM
- TGI (SW-620 colon): 28.6 µM
- GI50 (OVCAR-3 ovarian): 17.8 µM
- TGI (OVCAR-3 ovarian): 32.5 µM
- GI50 (SR leukemia): 15.3 µM
- TGI (SR leukemia): 46.6 µM
- GI50 (MDA-MB-231 breast): 16.1 µM
- TGI (MDA-MB-231 breast): 31.1 µM
- GI50 (HCT-15 colon): 5.91 µM
- TGI (HCT-15 colon): 23.3 µM
- GI50 (NCI-H226 lung): 15 µM
- TGI (NCI-H226 lung): 30.3 µM
- GI50 (NCI/ADR-RES ovarian): 20.8 µM
- TGI (NCI/ADR-RES ovarian): 46.9 µM
- GI50 (IGROV1 ovarian): 18 µM
- TGI (IGROV1 ovarian): 45.1 µM
- GI50 (NCI-H522 lung): 16.5 µM
- TGI (NCI-H522 lung): 33.5 µM
- GI50 (SF-295 CNS): 18.5 µM
- TGI (SF-295 CNS): 37.9 µM
- GI50 (NCI-H460 lung): 18.3 µM
- TGI (NCI-H460 lung): 40.8 µM
- GI50 (MALME-3M melanoma): 21 µM
- TGI (MALME-3M melanoma): 44.9 µM
- GI50 (COLO 205 colon): 16.4 µM
- TGI (COLO 205 colon): 33.2 µM
- GI50 (OVCAR-4 ovarian): 2.02 µM
- TGI (OVCAR-4 ovarian): 3.9 µM
- GI50 (SNB-19 CNS): 12.5 µM
- TGI (SNB-19 CNS): 25.5 µM
- GI50 (SK-MEL-2 melanoma): 23.2 µM
- TGI (SK-MEL-2 melanoma): 41.7 µM
- GI50 (DU-145 prostate): 13.3 µM
- TGI (DU-145 prostate): 26.4 µM
- GI50 (OVCAR-5 ovarian): 20.1 µM
- TGI (OVCAR-5 ovarian): 36.1 µM
- GI50 (PC-3 prostate): 19.1 µM
- TGI (PC-3 prostate): 37.5 µM
- GI50 (HOP-92 NSCLC): 18.3 µM
- TGI (HOP-92 NSCLC): 35 µM
- GI50 (SN12C renal): 13.8 µM
- TGI (SN12C renal): 28.2 µM
- GI50 (786-0 renal): 19.9 µM
- TGI (786-0 renal): 36.8 µM
- GI50 (LOX IMVI melanoma): 10.1 µM
- TGI (LOX IMVI melanoma): 23.4 µM
- GI50 (M14 melanoma): 17 µM
- TGI (M14 melanoma): 31.7 µM
- GI50 (MCF7 breast): 10.9 µM
- TGI (MCF7 breast): 33.7 µM
- GI50 (CCRF-CEM leukemia): 19.2 µM
- TGI (CCRF-CEM leukemia): 52.2 µM
- GI50 (SK-MEL-28 melanoma): 17.9 µM
- TGI (SK-MEL-28 melanoma): 32 µM
- GI50 (SF-539 CNS): 19.2 µM
- TGI (SF-539 CNS): 34.4 µM
- GI50 (K-562 leukemia): 6.78 µM
- TGI (K-562 leukemia): 66.5 µM
- GI50 (HOP-62 NSCLC): 15.8 µM
- TGI (HOP-62 NSCLC): 29.5 µM
- GI50 (UO-31 renal): 1.97 µM
- TGI (UO-31 renal): 4.04 µM
- GI50 (RXF 393 renal): 11.9 µM
- TGI (RXF 393 renal): 24.5 µM
- GI50 (HCT-116 colon): 12.9 µM
- TGI (HCT-116 colon): 25.7 µM
- GI50 (OVCAR-8 ovarian): 17.7 µM
- TGI (OVCAR-8 ovarian): 36.8 µM
- GI50 (SF-268 CNS): 18.5 µM
- TGI (SF-268 CNS): 36.3 µM
- GI50 (A549 NSCLC): 19.3 µM
- TGI (A549 NSCLC): 41.1 µM
- GI50 (SNB-75 CNS): 15.3 µM
- TGI (SNB-75 CNS): 29.5 µM
- GI50 (T-47D breast): 13.5 µM
- TGI (T-47D breast): 35.1 µM
